Test results taken from patent US20230391779A1, “BICYCLIC COMPOUNDS, COMPOSITIONS AND USE THEREOF” (Betta Pharmaceuticals Co., Ltd., priority 2020, published 2023).

Test system: TEAD-YAP/TAZ interaction
Assay: CTGF ELISA assay
Assay type: cell-based, human
Details: CTGF in culture supernatant of NCI-H2052 cells, 24 hours with compound
Protocol: The detection of CTGF expression level can assessed the binding activity of TEAD-YAP/TAZ transcription factor, and the CTGF expression level was quantified by SimpleStep ELISA® kit (Abcam, ab261851).
NCI-H2052 cells (Purchased from ATCC) were cultured in RPMI 1640 medium, adding 10% FBS and 1% Penicillin-Streptomycin Solution and 1 mM Sodium pyruvate. The day before compounds treatment, the cultured cells were washed with PBS and digested with trypsin, then centrifuged and collected. Discarded the supernatant, the cells were resuspended in fresh complete medium. After cells counted, cells were seeded at 6500 cells/well in 96-well plates. And then cells were cultured overnight in incubator (37° C., 5% CO2).
After the cells were cultured overnight, discarded the culture supernatant, then washed with PBS solution, cells were incubated with 200 μl medium containing compounds in each well. The starting concentration was 10 μM and serial dilution in DMSO and medium were performed to achieve a final DMSO concentration of 0.5% (Final compounds concentration were 10000, 2500, 625, 156, 39.1, 9.77, 2.44, 0.61 nM, 0 nM (0.5% DMSO), The cells were then cultured in incubator (37° C., 5% CO2). Cultured for 24 hours, the cells were centrifuged at 1500 RPM at 4° C. for 5 minutes, and then 50 μl of culture supernatant were tested for CTGF ELISA assay.
The Human CTGF SimpleStep ELISA® Kit (Abcam, ab261851) employs an affinity tag labeled capture antibody and a reporter conjugated detector antibody which immunocapture the sample analyte in solution. This entire complex (capture antibody/analyte/detector antibody) is in turn immobilized via immunoaffinity of an anti-tag antibody coating the well. To perform the assay, samples or standards are added to the wells, followed by the antibody mix (capture antibody/detector antibody). After incubation, the wells are washed to remove unbound material. TMB Development Solution is added and during incubation is catalyzed by HRP, generating blue coloration. This reaction is then stopped by addition of Stop Solution completing any color change from blue to yellow. Signal is generated proportionally to the amount of bound analyte and the intensity is measured at 450 nm. Firstly, prepare all reagents, samples, and standards as instructed. Add 50 μl standard or sample to appropriate wells. Then add 50 μl of the Antibody Cocktail to each well. Seal the plate and incubate for 1 hour at room temperature on a plate shaker. Wash each well with Wash Buffer three times. Add 100 μl of TMB Development Solution to each well and incubate for 10 minutes in the dark on a plate shaker. Add 100 μl of Stop Solution to each well. Shake plate on a plate shaker for 1 minute to mix. Record the OD at 450 nm. Determine the concentration of the target protein in the sample by the standard curve.
EC50 value was determined by fitting the concentration response curves using GraphPad Prism software. The compounds of the present invention were tested for their capacity to inhibit TEAD-YAP/TAZ interaction according to the fitted curves of CTGF concentration response to compounds.

SMILES	EC50 [nM]
C=CC(=O)N1CCC(n2nc(-c3ccc(C(F)(F)F)cc3F)c3cccnc32)C1 (stereo not shown) [Compound 29, 1-(3-(3-(2-fluoro-4-(trifluoro-methyl)phenyl)-1H-pyrazolo[3,4-b]pyridin-1-yl)pyrrolidin-1-yl)-prop-2-en-1-one]	12
C=C(F)C(=O)N1CC(n2c(=O)n(-c3ccc(C(F)(F)F)cc3)c3cc(C)cnc32)C1 [Compound 244, 3-(1-(2-fluoroacryloyl)azetidin-3-yl)-6-methyl-1-(4-(trifluoromethyl)phenyl)-1,3-dihydro-2H-imidazo[4,5-b]pyridin-2-one]	11
C=C(F)C(=O)N1CC(Nc2nc(-c3ccc(C(F)(F)F)cc3)nc3ccccc23)C1 [Compound 255, 2 fluoro-1-(3-((2-(4-(trifluoromethyl)phenyl)quinazolin-4 yl)amino)azetidin-1 yl)prop-2-en-1-one]	44
C=CC(=O)N1CCCC(n2nc(-c3ccc(C(F)(F)F)cc3)c3cccnc32)C1 (stereo not shown) [Compound 33, 1-(3-(3-(4-(trifluoromethyl)phen-yl)-1H-pyrazolo[3,4-b]pyridin-1-yl)piperidin-1-yl)prop-2-en-1-one]	32
C=CC(=O)N1CCC(n2nc(-c3ccc(C(F)(F)F)nc3)c3cccc(C(=O)NC4COC4)c32)C1 (stereo not shown) [Compound 101, 1-(1-acryloylpyrrolidin-3-yl)-N-(oxetan-3-yl)-3-(6-(trifluorometh-yl)pyridin-3-yl)-1H-indazole-7-carboxamide]	97
C=CC(=O)N1CCC(n2nc(-c3ccc(C(F)(F)F)cc3)c3cc(F)c(F)cc32)C1 (stereo not shown) [Compound 51, 1-(3-(5,6-difluoro-3-(4-(trifluoro-methyl)phenyl)-1H-indazol-1-yl)-pyrrolidin-1-yl)prop-2-en-1-one]	44
C=C(F)C(=O)Nc1cc(-n2nc(-c3ccc(C(F)(F)F)cc3)c3cccnc32)ccc1OC [Compound 188, 2-fluoro-N-(2-methoxy-5-(3-(4-(trifluoromethyl)phenyl)-1H-pyrazolo[3,4-b]pyridin-1-yl)-phenyl)acrylamide]	0.06
C=CC(=O)N1CCC2(CCC(n3nc(-c4ccc(C(F)(F)F)cc4)c4ncccc43)C2)C1 (stereo not shown) [Compound 125, 1-(7-(3-(4-(trifluoromethyl)phen-yl)-1H-pyrazolo[4,3-b]pyridin-1-yl)-2-azaspiro[4.4]nonan-2-yl)-prop-2-en-1-one]	75
CC#CC(=O)N1CCC(n2nc(-c3ccc(C(F)(F)F)cc3)c3ccccc32)C1 (stereo not shown) [Compound 55, 1-(3-(3-(4-(trifluoromethyl)phen-yl)-1H-indazol-1-yl)pyrrolidin-1-yl)but-2-yn-1-one]	16
C=CC(=O)N1CCC(n2nc(-c3ccc(C(F)(F)F)cc3)c3cccc(F)c32)C1 (stereo not shown) [Compound 70, 1-(3-(7-fluoro-3-(4-(trifluoro-methyl)phenyl)-1H-indazol-1-yl)-pyrrolidin-1-yl)prop-2-en-1-one]	34
C=CC(=O)N1CCC(c2nn(-c3ccc(C(F)(F)F)cc3)c3ccccc23)C1 (stereo not shown) [Compound 4, 1-(3-(1-(4-(trifluoromethyl)phenyl)-1H-indazol-3-yl)pyrrolidin-1-yl)prop-2-en-1-one]	15.5
C=CC(=O)N1CC(n2nc(-c3ccc(C(F)(F)F)nc3)c3ncccc32)C1 [Compound 131, 1-(3-(3-(6-(trifluoromethyl)pyr-idin-3-yl)-1H-pyrazolo[4,3-b]-pyridin-1-yl)azetidin-1-yl)prop-2-en-1-one]	18
C=C(F)C(=O)N1CC(n2nc(-c3ccc(C(F)(F)F)nc3)c3nccnc32)C1 [Compound 198, 2-fluoro-1-(3-(3-(6-(trifluoro-methyl)pyridin-3-yl)-1H-pyrazolo[3,4-b]pyrazin-1-yl)-azetidin-1-yl)prop-2-en-1-one]	0.9
C=CC(=O)N1CCC(n2nc(-c3ccc(C(F)(F)F)cc3)c3cccc(C(=O)N(C)C)c32)C1 (stereo not shown) [Compound 103, 1-(1-acryloylpyrrolidin-3-yl)-N,N-dimethyl-3-(4-(trifluoromethyl)-phenyl)-1H-indazole-7-carbox-amide]	158
C=CC(=O)N1CCC(n2nc(-c3ccc(C(F)(F)F)cc3)c3cccc(C(N)=O)c32)C1 (stereo not shown) [Compound 42, 1-(1-acryloylpyrrolidin-3-yl)-3-(4-(trifluoromethyl)phenyl)-1H-indazole-7-carboxamide]	14
C=C(F)C(=O)N1CC(n2nc(-c3ccc(C(F)(F)F)cc3)c3ccc(OC)nc32)C1 [Compound 221, 2-fluoro-1-(3-(6-methoxy-3-(4-(trifluoromethyl)phenyl)-1H-pyrazolo[3,4-b]pyridin-1-yl)-azetidin-1-yl)prop-2-en-1-one]	0.9
C=C(F)C(=O)N1CC(n2nc3c(c2-c2ccc(C(F)(F)F)cc2)COCC3)C1 [Compound 209, 2-fluoro-1-(3-(3-(4-(trifluoro-methyl)phenyl)-6,7-dihydro-pyrano[4,3-c]pyrazol-2(4H)-yl)azetidin-1-yl)prop-2-en-1-one]	25
C=CC(=O)N1CCC(n2nc(-c3ccc(C(F)(F)F)cc3)c3cccc(C(=O)OC)c32)C1 (stereo not shown) [Compound 78, methyl 1-(1-acryloylpyrrolidin-3-yl)-3-(4-(trifluoromethyl)phenyl)-1H-indazole-7-carboxylate]	21
C=C(F)C(=O)N1CC(n2c(=O)n(-c3ccc(C(F)(F)F)cc3)c3ccc(Cl)nc32)C1 [Compound 252, 5-chloro-3-(1-(2-fluoroacryloyl)azetidin-3-yl)-1-(4-(trifluoromethyl)phenyl)-1,3-dihydro-2H-imidazo[4,5-b]pyridin-2-one]	9.8
C=C(F)C(=O)N1CCC(n2nc(-c3ccc(C(F)(F)F)cc3)c3ncn(C)c(=O)c32)C1 (stereo not shown) [Compound 77, 1-(1-(2-fluoroacryloyl)pyrrolidin-3-yl)-6-methyl-3-(4-(trifluoro-methyl)phenyl)-1,6-dihydro-7H-pyrazolo[4,3-d]pyrimidin-7-one]	6
C=CC(=O)N1CCC(n2nc(-c3ccc(C(F)(F)F)cc3)c3cc(C)cnc32)C1 (stereo not shown) [Compound 96, 1-(3-(5-methyl-3-(4-(trifluoro-methyl)phenyl)-1H-pyrazolo[3,4-b]pyridin-1-yl)pyrrolidin-1-yl)-prop-2-en-1-one]	4
C=C(F)C(=O)N1CC(n2nc(-c3ccc(C(C)C)cc3)c3cccnc32)C1 [Compound 171, 2-fluoro-1-(3-(3-(4-isopropyl-phenyl)-1H-pyrazolo[3,4-b]-pyridin-1-yl)azetidin-1-yl)prop-2-en-1-one]	148
C=C(F)C(=O)N1CC(n2c(=O)n(-c3ccc(C(F)(F)F)cc3)c3ncccc32)C1 [Compound 239, 1-(1-(2-fluoroacryloyl)azetidin-3-yl)-3-(4-(trifluoromethyl)phenyl)-1,3-dihydro-2H-imidazo[4,5-b]pyridin-2-one]	15
C=C(F)C(=O)N1CC(n2nc(-c3ccc(C(F)(F)F)cc3)c3cccnc32)C1C (stereo not shown) [Compound 9, 2 fluoro-1-(2-methyl-3-(3-(4-(trifluoromethyl)phenyl)-1H-pyrazolo[3,4-b]pyridin-1 yl)azetidin-1 yl)prop-2-en-1-one]	1.4
C=CC(=O)NC1CN(c2nc(-c3ccc(C(F)(F)F)cc3)n3ccccc23)C1 [Compound 13, N-(1-(3-(4-(trifluoromethyl)phenyl)imidazo[1,5-a]pyridin-1 yl)azetidin-3 yl)acrylamide]	20
C=C(F)C(=O)N1CCC(n2nc(-c3ccc(C(F)(F)F)cc3)c3ncccc32)C1 (stereo not shown) [Compound 71, 2-fluoro-1-(3-(3-(4-(trifluoro-methyl)phenyl)-1H-pyrazolo[4,3-b]pyridin-1-yl)pyrrolidin-1-yl)-prop-2-en-1-one]	12
C=CC(=O)N1CCC(n2nc(-c3ccc(C(F)(F)F)cc3)c3nccnc32)C1 (stereo not shown) [Compound 18, 1-(3-(3-(4-(trifluoromethyl)phen-yl)-1H-pyrazolo[3,4-b]pyrazin-1-yl)pyrrolidin-1-yl)prop-2-en-1-one]	10
C=C(F)C(=O)N1CC(n2nc(-c3ccc(C(F)(F)F)cc3)c3cc(F)cnc32)C1 [Compound 202, 2-fluoro-1-(3-(5-fluoro-3-(4-(trifluoromethyl)phenyl)-1H-pyrazolo[3,4-b]pyridin-1-yl)-azetidin-1-yl)prop-2-en-1-one]	8.1
